Patent US20150237857A1, “ANTIBACTERIAL INHIBITORS” (MCMASTER UNIVERSITY, priority 2012, published 2015)
Converted amounts (≈) assume the structure as drawn. Like-named read-outs stand apart in the source and are kept apart here.

Key:
Mycobacteria smegmatis = assay: MIC against Mycobacteria smegmatis in absence and presence of biotin; format: cell-based
recombinant E. coli BioA = recombinant E. coli BioA (Escherichia coli, UniProt P12995); assay: BioA inhibition through a feeding assay of a bioA auxotroph; format: biochemical; settings: relative to DMSO control
Sequence of recombinant E. coli BioA (P12995 whole entry): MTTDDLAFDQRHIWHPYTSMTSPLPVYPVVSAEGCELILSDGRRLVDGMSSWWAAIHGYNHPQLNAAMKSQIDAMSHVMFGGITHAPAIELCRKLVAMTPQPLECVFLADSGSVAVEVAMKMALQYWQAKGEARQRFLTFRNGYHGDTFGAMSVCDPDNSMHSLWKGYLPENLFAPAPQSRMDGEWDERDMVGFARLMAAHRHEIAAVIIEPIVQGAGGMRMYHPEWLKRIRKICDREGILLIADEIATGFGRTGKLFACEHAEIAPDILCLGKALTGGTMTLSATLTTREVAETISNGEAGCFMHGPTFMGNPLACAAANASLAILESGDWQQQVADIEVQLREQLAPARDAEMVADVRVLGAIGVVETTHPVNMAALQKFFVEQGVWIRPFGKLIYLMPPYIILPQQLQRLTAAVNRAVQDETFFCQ
Description: To determine if the step catalyzed by BioA was the target of this inhibitor, the inhibitory activity of MAC-0013772 against recombinant E. coli BioA was assayed through a feeding assay of a bioA auxotroph.

E. coli MG1655 [1] = assay: Minimum inhibitory concentration (MIC) determination; settings: for MIC: Escherichia coli
Description: The MIC values were determined in liquid minimal media and minimal media supplemented with amino acids, vitamins and nucleobases.
A single colony of E. coli MG1655 was grown overnight in 5 ml of M9 minimal media. The saturated culture was diluted 1/50 in fresh minimal media and allowed to grow until the OD600 reached ˜0.4. […] After mixing of the bacterial culture with the compounds, the OD600 of the plates was read using Envision to account for background absorbance. The plates were then incubated in a 37° C. stationary incubator for 16 hours before measuring their OD600. After subtracting any background absorbance contributed by colored or precipitated compounds, the MIC was defined as the lowest concentration of antibiotic that inhibits visible growth.

E. coli MG1655 [2] = assay: Metabolic suppression profiling (ChemArray); format: cell-based; settings: for metabolic suppression profile: metabolites that suppress growth inhibitory activity: ChemArray
[3] = absence of biotin, read-out: MIC −bio
[4] = presence of 2 nM of biotin, read-out: MIC +bio
[5] = MG1655, 16 h, read-out: MIC +bio, presence of 2 nM of biotin
[6] = MG1655, read-out: MIC −bio, absence of biotin

Compound	MIC (Mycobacteria smegmatis; [3]) [µg/mL]	MIC (Mycobacteria smegmatis; [4]) [µg/mL]	inhibition at 1 µM (recombinant E. coli BioA) [%]	inhibition at 10 µM (recombinant E. coli BioA) [%]	MIC (E. coli MG1655 [1]; [5]) [µg/mL]	MIC (E. coli MG1655 [1]; [6]) [µg/mL]	further results
NNC(=O)CSc1cccc([N+](=O)[O-])c1 [Compound 1a, 2-(3-nitrophenylthio)acetohydrazide]	16	> 256	42	84	> 256	256 (≈ 1130 µM)	–
NNC(=O)CSc1ccc([N+](=O)[O-])cc1 [Compound 1b, 2-(4-nitrophenylthio)acetohydrazide]	4	> 256	66	100	–	–	antibacterial potency against M. smegmatis compared with MAC-0013772 (in words) (Mycobacteria smegmatis): potencies similar to that of MAC-0013772
NNC(=O)CSc1ccccc1 [Compound 1c, 2-(phenylthio)acetohydrazide]	4	> 256	49	100	> 256	64 (≈ 351 µM)	antibacterial potency against M. smegmatis compared with MAC-0013772 (in words) (Mycobacteria smegmatis): potencies similar to that of MAC-0013772
NNC(=O)CSc1ccccc1F [Compound 1d, 2-(2-fluorophenylthio)acetohydrazide]	4	> 256	36	100	> 256	32 (≈ 160 µM)	antibacterial potency against M. smegmatis compared with MAC-0013772 (in words) (Mycobacteria smegmatis): potencies similar to that of MAC-0013772
NNC(=O)CSc1ccccc1Cl [Compound 1e, 2-(2-chlorophenylthio) acetohydrazide]	4	> 256	63	100	> 256	16 (≈ 73.8 µM)	antibacterial potency against M. smegmatis compared with MAC-0013772 (in words) (Mycobacteria smegmatis): potencies similar to that of MAC-0013772; antibacterial activity against E. coli (in words) (E. coli MG1655 [1]): does not gravely alter antibacterial activity
NNC(=O)CSc1ccccc1O [Compound 1f, 2-(2-hydroxyphenylthio)acetohydrazide]	32	256	32	70	256	256 (≈ 1290 µM)	–
NNC(=O)CSc1ccccc1N [Compound 1g, 2-(2-aminophenylthio)acetohydrazide]	32	256	58	100	> 256	256 (≈ 1300 µM)	–
Cc1ccccc1SCC(=O)NN [Compound 1h, 2-(o-tolylthio)acetohydrazide]	4	> 256	81	100	> 256	16 (≈ 81.5 µM)	antibacterial potency against M. smegmatis compared with MAC-0013772 (in words) (Mycobacteria smegmatis): potencies similar to that of MAC-0013772; antibacterial activity against E. coli (in words) (E. coli MG1655 [1]): does not gravely alter antibacterial activity
COc1ccccc1SCC(=O)NN [Compound 1i, 2-(2-methoxyphenylthio)acetohydrazide]	16	> 256	65	100	> 256	128 (≈ 603 µM)	–
CC(=O)NNC(=O)CSc1ccc([N+](=O)[O-])cc1 [Compound 1j]	> 256	> 256	0	0	> 256	> 256	–
CCC(=O)CSc1ccccc1[N+](=O)[O-] [Compound 1k]	> 256	> 256	0	0	> 256	> 256	–
NC(=O)CSc1ccccc1[N+](=O)[O-] [Compound 1l]	128	> 256	0	0	> 256	> 256	–
CC(=O)CSc1ccccc1[N+](=O)[O-] [Compound 1m]	256	256	0	0	> 256	> 256	–
O=C(O)CSc1ccccc1[N+](=O)[O-] [Compound 1n]	> 256	> 256	0	0	> 256	> 256	–
CSCC(=O)NN [Compound 2a]	32	32	50	64	64	64 (≈ 533 µM)	suppression of growth inhibition in the presence of biotin (in words) (E. coli MG1655 [1]; presence of biotin): not suppressed
NNC(=O)CS [Compound 2b]	32	32	20	34	256	256 (≈ 2410 µM)	–
CCCC(=O)NN [Compound 2c]	–	–	1	40	–	–	MIC (Mycobacteria smegmatis; read-out: MIC +bio): 64 µg/mL; MIC (Mycobacteria smegmatis; read-out: MIC −bio): 64 µg/mL; MIC (E. coli MG1655 [1]; MG1655, read-out: MIC −bio): > 256 µg/mL
CCC(=O)NN [Compound 2d]	64	64	0	8	> 256	> 256	–
NNC(=O)C1Cc2ccccc2S1 (centres unmarked) [Compound 2f, 2,3-dihydrobenzo[b]thiophene-2-carbohydrazide]	64	> 256	15	69	> 256	> 256	–
NNC(=O)CSCc1ccccc1 [Compound 2g, 2-(benzylthio)acetohydrazide]	8	> 256	60	100	> 256	64 (≈ 326 µM)	antibacterial potency against M. smegmatis compared with MAC-0013772 (in words) (Mycobacteria smegmatis): potencies similar to that of MAC-0013772
NNC(=O)CSc1ccc2ccccc2c1 [Compound 2h, 2-(naphthalen-2-ylthio)acetohydrazide]	32	> 256	71	100	> 256	> 256	–
NNC(=O)CSc1ccncc1 [Compound 2i, 2-(pyridin-4-ylthio)acetohydrazide]	8	128	32	77	> 256	64 (≈ 349 µM)	antibacterial potency against M. smegmatis compared with MAC-0013772 (in words) (Mycobacteria smegmatis): potencies similar to that of MAC-0013772
NNC(=O)Cc1ccccc1[N+](=O)[O-] [Compound 2j]	256	> 256	0	29	> 256	> 256	–
N[C@@H]1CONC1=O [D-cycloserine, reference compound]	–	–	–	–	–	–	metabolic suppression profile: metabolites that suppress growth inhibitory activity (E. coli MG1655 [2]; 4× MIC in M9 minimal media): suppressed by the addition of either D/L-alanine or glycine; suppression of growth inhibitory activity by glycine (E. coli MG1655 [2]; 4× MIC in M9 minimal media): strongly suppressed
CN(C)CCC(=O)c1ccc2c(c1)OCCO2 [MAC-0161738, 1-(2,3-dihydrobenzo[b][1,4]dioxin-6-yl)-3-(dimethylamino)propan-1-one]	–	–	–	–	–	–	suppression of growth inhibitory activity by glycine (E. coli MG1655 [2]; 4× MIC in M9 minimal media): strongly suppressed
O=C(CCN1CCCCC1)c1ccc2c(c1)OCCCO2 [MAC-0162065, 1-(3,4-dihydro-2H-benzo[b][1,4]dioxepin-7-yl)-3-(piperidin-1-yl)propan-1-one]	–	–	–	–	–	–	suppression of growth inhibitory activity by glycine (E. coli MG1655 [2]; 4× MIC in M9 minimal media): strongly suppressed
COc1cc(Cc2cnc(N)nc2N)cc(OC)c1OC [Trimethoprim, reference compound]	–	–	–	–	–	–	metabolic suppression profile: metabolites that suppress growth inhibitory activity (E. coli MG1655 [2]; 4× MIC in M9 minimal media): only be suppressed by providing a mixture of all supplements or at least a mixture of amino acids and nucleobases
O=C(O)CNCP(=O)(O)O [glyphosate, reference compound]	–	–	–	–	–	–	metabolic suppression profile: metabolites that suppress growth inhibitory activity (E. coli MG1655 [2]; 4× MIC in M9 minimal media): could only be achieved by providing a mixture of amino acids; suppression of growth inhibitory activity by pools containing the aromatic amino acids (E. coli MG1655 [2]; expanded ChemArray): fully reversed
CCn1cc(C(=O)O)c(=O)c2cc(F)c(N3CCNCC3)cc21 [norfloxacin, reference compound]	–	–	–	–	–	–	metabolic suppression profile: metabolites that suppress growth inhibitory activity (E. coli MG1655 [2]; 4× MIC in M9 minimal media): not altered in the presence of supplements
Cc1cc(NS(=O)(=O)c2ccc(N)cc2)no1 [sulfamethoxazole, reference compound]	–	–	–	–	–	–	suppression of growth inhibitory activity by p-aminobenzoic acid (PABA) (E. coli MG1655 [2]; 4× MIC in M9 minimal media, PABA in growth media): fully reversed; suppression of growth inhibitory activity by methionine (E. coli MG1655 [2]; 4× MIC in M9 minimal media, methionine in growth media): to a certain extent
